Test results reported in patent US7799814B2, “Thiazole derivatives and use thereof” (Merck Serono S.A., priority 2005, dated 2010).

What follows are molecules tested against Human recombinant GST-PI3Kγ (Homo sapiens, UniProt P48736) (assay: High Throughput PI3K Lipid Kinase Assay (scintillation proximity assay, neomycin-coated SPA beads)). Settings: not given.
Human recombinant GST-PI3Kγ, sequence (P48736 whole entry): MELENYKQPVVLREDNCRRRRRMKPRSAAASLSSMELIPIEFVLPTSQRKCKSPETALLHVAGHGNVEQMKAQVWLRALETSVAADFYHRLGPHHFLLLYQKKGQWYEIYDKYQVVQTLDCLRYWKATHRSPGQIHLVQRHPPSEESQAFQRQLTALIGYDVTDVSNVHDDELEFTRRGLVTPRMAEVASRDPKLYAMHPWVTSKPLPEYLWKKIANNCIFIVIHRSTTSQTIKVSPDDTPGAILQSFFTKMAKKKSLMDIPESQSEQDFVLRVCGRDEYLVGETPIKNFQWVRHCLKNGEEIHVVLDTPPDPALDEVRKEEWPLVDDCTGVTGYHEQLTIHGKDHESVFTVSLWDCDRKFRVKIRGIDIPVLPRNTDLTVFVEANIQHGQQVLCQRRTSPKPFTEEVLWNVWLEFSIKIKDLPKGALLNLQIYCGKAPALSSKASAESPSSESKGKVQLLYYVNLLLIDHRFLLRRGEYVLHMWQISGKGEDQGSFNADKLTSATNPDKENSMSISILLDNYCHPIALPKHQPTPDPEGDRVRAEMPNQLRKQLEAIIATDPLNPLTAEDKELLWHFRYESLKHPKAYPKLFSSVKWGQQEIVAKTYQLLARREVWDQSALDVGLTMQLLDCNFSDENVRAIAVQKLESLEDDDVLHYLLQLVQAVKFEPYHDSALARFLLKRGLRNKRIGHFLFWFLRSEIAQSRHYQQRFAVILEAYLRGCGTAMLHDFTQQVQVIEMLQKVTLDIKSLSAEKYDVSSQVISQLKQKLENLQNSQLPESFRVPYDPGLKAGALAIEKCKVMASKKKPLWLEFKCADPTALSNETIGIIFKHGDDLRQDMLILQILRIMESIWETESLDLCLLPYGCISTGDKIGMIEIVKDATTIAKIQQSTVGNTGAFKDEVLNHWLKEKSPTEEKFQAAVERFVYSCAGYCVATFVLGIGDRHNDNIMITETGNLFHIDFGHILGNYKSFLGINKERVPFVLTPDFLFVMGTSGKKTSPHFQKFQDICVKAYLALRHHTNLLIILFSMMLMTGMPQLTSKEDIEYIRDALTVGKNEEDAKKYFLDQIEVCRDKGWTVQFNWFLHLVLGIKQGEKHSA
Assay type: biochemical
Text: a) High Throughput PI3K Lipid Kinase Assay (Binding Assay):
The efficacy of compounds of the invention in inhibiting the PI3K induced-lipid phosphorylation may be tested in the following binding assay.
The assay combines the scintillation proximity assay technology (SPA, Amersham) with the capacity of neomycin (a polycationic antibiotic) to bind phospholipids with high affinity and specificity. The Scintillation Proximity Assay is based on the properties of weakly emitting isotopes (such as ^3H, ^125I, ^33P). Coating SPA beads with neomycin allows the detection of phosphorylated lipid substrates after incubation with recombinant PI3K and radioactive ATP in the same well, by capturing the radioactive phospholipids to the SPA beads through their specific binding to neomycin.
To a 384 wells MTP containing 5 μl of the test compound of Formula (I) (solubilized in 6% DMSO; to yield a concentration of 100, 30, 10, 3, 1, 0.3, 0.1, 0.03, 0.01, 01 μM of the test compound), the following assay components are added. 1) 5 μl (58 ng) of Human recombinant GST-PI3Kγ (in Hepes 40 mM, pH 7.4, DTT 1 mM and ethylenglycol 5%) 2) 10 μl of lipid micelles and 3) 10 μl of Kinase buffer ([^33P]γ ATP. 45 μM/60 nCi, MgCl mM, DTT 1 mM, β Glycerophosphate 1 mM, NVO4 100 μM, Na Cholate 0.3%, in Hepes 40 mM, pH 7.4). After incubation at room temperature for 180 minutes, with gentle agitation, the reaction is stopped by addition of 60 μl of a solution containing 100 μg of neomycin-coated PVT SPA beads in PBS containing ATP 10 mM and EDTA 5 mM. The assay is further incubated at room temperature for 60 minutes with gentle agitation to allow binding of phospholipids to neomycin-SPA beads. After precipitation of the neomycin-coated PVT SPA beads for 5 minutes at 1500×g, radioactive PtdIns(3)P is quantified by scintillation counting in a Wallac MicroBeta™ plate counter.
The values indicated in Table I below refer to the IC50 (μM) with respect to PI3Kγ, i.e. the amount necessary to achieve 50% inhibition of said target. Said values show a considerable inhibitory potency of thiazole compounds with regard to PI3Kγ.
With `CC(=O)Nc1nc(C)c(-c2csc(C(=O)NCCCN(C)C)n2)s1` [Example 10, 2′-(Acetylamino)-N-[3-(dimethylamino)propyl]-4′-methyl-4,5′-bi-1,3-thiazole-2-carboxamide] the IC50 was 2200 nM. For `COCCNC(=O)Nc1nc(C)c(-c2csc(C(=O)N3CCOCC3)n2)s1` [Example 36, N-(2-methoxyethyl)-N′-[4′-methyl-2-(morpholin-4-ylcarbonyl)-4,5′-bi-1,3-thiazol-2′-yl]urea], the IC50 was 795 nM. Molecule `CCOC(=O)c1nc(-c2sc(NC(C)=O)nc2C)cs1` [Example 1, Ethyl 2′-(acetylamino)-4′-methyl-4,5′-bi-1,3-thiazole-2-carboxylate] has an IC50 of 870 nM. `CCOC(=O)c1nc(-c2sc(Nc3cnccn3)nc2C)cs1` [Example 54, Ethyl 4′-methyl-2′-(pyrazin-2-ylamino)-4,5′-bi-1,3-thiazole-2-carboxylate] was tested, and the IC50 was 1420 nM. `CC(=O)Nc1nc(C)c(-c2csc(C(=O)N3CCN(C)CC3)n2)s1` [Example 9, N-{4′-methyl-2-[(4-methylpiperazin-1-yl)carbonyl]-4,5′-bi-1,3-thiazol-2′-yl}acetamide] showed an IC50 of 601 nM. `CC(=O)Nc1nc(C)c(-c2csc(C(=O)Nc3nnn[nH]3)n2)s1` [Example 13, 2′-(acetylamino)-4′-methyl-N-1H-tetrazol-5-yl-4,5′-bi-1,3-thiazole-2-carboxamide] was tested, and the IC50 was 13 nM. For `CC(=O)Nc1nc(C)c(-c2csc(C(=O)NCC3CCCO3)n2)s1` (stereo not shown) [Example 6, 2′-(Acetylamino)-4′-methyl-N-(tetrahydrofuran-2-ylmethyl)-4,5′-bi-1,3-thiazole-2-carboxamide], the IC50 was 355 nM. For `CC(=O)Nc1nc(C)c(-c2csc(Cc3nnn[nH]3)n2)s1` [Example 23, N-[4′-methyl-2-(2H-tetrazol-5-ylmethyl)-4,5′-bi-1,3-thiazol-2′-yl]acetamide], the IC50 was 328 nM. With `CC(=O)Nc1nc(C)c(-c2csc(C(=O)Nc3cccc(-c4nnc(N)s4)c3)n2)s1` [Example 25, 2′-(acetylamino)-N-[3-(5-amino-1,3,4-thiadiazol-2-yl)phenyl]-4′-methyl-4,5′-bi-1,3-thiazole-2-carboxamide] the IC50 was 1540 nM. Molecule `CC(=O)Nc1nc(C)c(-c2csc(C(=O)N3CCOCC3)n2)s1` [Example 8, N-[4′-methyl-2-(morpholin-4-ylcarbonyl)-4,5′-bi-1,3-thiazol-2′-yl]acetamide] has an IC50 of 186 nM. `CC(=O)Nc1nc(C)c(-c2csc(C(=O)O)n2)s1` [Example 4, 2′-(Acetylamino)-4′-methyl-4,5′-bi-1,3-thiazole-2-carboxylic acid] was tested, and the IC50 was 494 nM.

Each molecule was assayed on Akt/PKB phosphorylation in Raw 264-7 macrophages (assay: Cell based ELISA to monitor PI3K inhibition: Akt/PKB phosphorylation in macrophages after stimulation with Complement 5a). Settings: Mus musculus, RAW264.7, 50 nM Complement 5a stimulation, phospho Serine 473 Akt, read-out: Cell Assay (P-Akt, Elisa) IC50.
Method: b) Cell Based ELISA to Monitor PI3K Inhibition:
The efficacy of compounds of the invention in inhibiting the PI3K induced Akt/PKB phosphorylation may be tested in the following cell based assay.
Measurement of Akt/PKB phosphorylation in macrophages after stimulation with Complement 5a: Raw 264: Raw 264-7 macrophages (cultured in DMEM-F12 medium containing 10% Fetal Calf serum and antibiotics) are plated at 20'000 cells/well in a 96 MTP 24 h before cell stimulation. Prior to the stimulation with 50 nM of Complement 5a during 5 minutes, Cells are serum starved for 2 h, and pretreated with inhibitors for 20 minutes. After stimulation cells are fixed in 4% formaldehyde for 20 minutes and washed 3 times in PBS containing 1% Triton X-100 (PBS/Triton). […] Next, phosphorylated Akt/PKB is detected by an overnight incubation at 4° C. with primary antibody (anti phospho Serine 473 Akt IHC, Cell Signaling) diluted 800-fold in PBS/Triton, containing 5% bovine serum albumin (BSA). After 3 washes in PBS/Triton, cells are incubated for 60 minutes with a peroxidase conjugated goat-anti-rabbit secondary antibody ( 1/400 dilution in PBS/Triton, containing 5% BSA), washed 3 times in PBS/Triton, and 2 times in PBS and further incubated in 100 μl of luminescent substrate reagent solution (Pierce) for 2 minutes, followed by the reading (1 s/well). […]
With `C=CCNC(=O)c1nc(-c2sc(NC(C)=O)nc2C)cs1` [Example 2, 2′-(Acetylamino)-N-allyl-4′-methyl-4,5′-bi-1,3-thiazole-2-carboxamide] the IC50 was 710 nM. With `CC(=O)Nc1nc(C)c(-c2csc(C(=O)N3CCOCC3)n2)s1` [Example 8, N-[4′-methyl-2-(morpholin-4-ylcarbonyl)-4,5′-bi-1,3-thiazol-2′-yl]acetamide] the IC50 was 910 nM.
